Data as given in the NIST ThermoML archive (doi:10.1016/j.jct.2013.05.029).

Assay: refractive index (other wavelength) (dimensionless); xn = mol fraction of the nth substance listed
Details: 101 kPa, Liquid, Wavelength=633 nm, Standard Abbe refractometry

CCCCCCCCCC [decane] + COC(=O)OC
Details	refractive index
280.97 K, x2 = 0.517	1.4023
280.97 K, x2 = 0.915	1.3807
281.95 K, x2 = 0.537	1.4011
281.95 K, x2 = 0.913	1.3805
283 K, x2 = 0.549	1.4002
283 K, x2 = 0.903	1.3808
284.42 K, x2 = 0.581	1.3983
284.42 K, x2 = 0.89	1.3811
285.51 K, x2 = 0.615	1.3964
285.51 K, x2 = 0.876	1.3817
286.06 K, x2 = 0.63	1.3954
286.06 K, x2 = 0.867	1.382
286.31 K, x2 = 0.641	1.3948
286.31 K, x2 = 0.859	1.3825
286.44 K, x2 = 0.65	1.3943
286.44 K, x2 = 0.855	1.3827
286.64 K, x2 = 0.663	1.3936
286.64 K, x2 = 0.849	1.383
286.84 K, x2 = 0.671	1.3932
286.84 K, x2 = 0.842	1.3834
286.94 K, x2 = 0.677	1.3928
286.94 K, x2 = 0.837	1.3837
287.03 K, x2 = 0.689	1.3922
287.03 K, x2 = 0.831	1.3841
287.13 K, x2 = 0.692	1.392
287.13 K, x2 = 0.827	1.3843
287.21 K, x2 = 0.703	1.3914
287.21 K, x2 = 0.708	1.3911
287.21 K, x2 = 0.819	1.3847
287.21 K, x2 = 0.824	1.3844
287.23 K, x2 = 0.705	1.3913
287.23 K, x2 = 0.712	1.3909
287.23 K, x2 = 0.815	1.385
287.23 K, x2 = 0.82	1.3847
287.26 K, x2 = 0.716	1.3907
287.26 K, x2 = 0.817	1.3849
287.27 K, x2 = 0.712	1.3909
287.27 K, x2 = 0.813	1.3851
287.28 K, x2 = 0.716	1.3907
287.28 K, x2 = 0.817	1.3849
287.29 K, x2 = 0.716	1.3907
287.29 K, x2 = 0.809	1.3853
287.31 K, x2 = 0.72	1.3905
287.31 K, x2 = 0.814	1.385
287.32 K, x2 = 0.72	1.3905
287.32 K, x2 = 0.723	1.3903
287.32 K, x2 = 0.729	1.39
287.32 K, x2 = 0.804	1.3857
287.32 K, x2 = 0.806	1.3855
287.32 K, x2 = 0.809	1.3853
287.35 K, x2 = 0.725	1.3902
287.35 K, x2 = 0.731	1.3899
287.35 K, x2 = 0.735	1.3896
287.35 K, x2 = 0.741	1.3893
287.35 K, x2 = 0.796	1.3861
287.35 K, x2 = 0.799	1.3859
287.35 K, x2 = 0.803	1.3857
287.35 K, x2 = 0.809	1.3853
287.36 K, x2 = 0.737	1.3895
287.36 K, x2 = 0.798	1.386
287.37 K, x2 = 0.737	1.3895
287.37 K, x2 = 0.741	1.3893
287.37 K, x2 = 0.79	1.3865
287.37 K, x2 = 0.796	1.3861
